This is an account of results in patent US8674118B2, “Compounds and methods for the treatment or prevention of flavivirus infections” (priority 2005, dated 2014).

For orientation: pIC50 means −log10 of the IC50, conventionally taken in molar units.

SMILES strings stand for the structures. pIC50: −log10 of the molar value. Counter-ions that a name gives are not always drawn.

One assay deals with HCV RNA replication (replicon cell lines Huh-7, 5.2 and ET). The assay can be described thus: Cell-Based Luciferase Reporter HCV RNA Replication Assay. The settings on record: Hepatitis C virus, Huh-7, 96 h, Huh-7, 5.2 or ET replicon cells, luciferase counts after 4 days incubation; read-out: IC50. Background: A reporter such as luciferase makes a cellular process visible.
On to `C[C@H]1CC[C@H](C(=O)N(c2cc(C3=CCCCC3)sc2C(=O)O)C2CCSCC2)CC1` [Compound 42, 5-cyclohex-1-enyl-3-[(trans-4-methyl-cyclohexanecarbonyl)-(tetrahydrothiopyran-4-yl)-amino]-thiophene-2-carboxylic acid], for which the pIC50 is > 5.30.

On to `CC1CCC(C(=O)N(c2cc(C3=CCCCC3)sc2C(=O)O)C2CCC(C(C)(C)C)CC2)CC1` (stereo not drawn) [Compound 44, 3-[(4-trans-tert-butyl-cyclohexyl)-(4-trans-methyl-cyclohexanecarbonyl)-amino]-5-cyclohex-1-enyl-thiophene-2-carboxylic acid], for which the pIC50 is 4.60 to 5.30.

On to `CC1CCC(C(=O)N(c2cc(C3=CCCCCC3)sc2C(=O)O)C2CCCCC2)CC1` (stereo not drawn) [Compound 46, 5-cyclohept-1-enyl-3-[cyclohexyl-(4-trans-methyl-cyclohexanecarbonyl)-amino]-thiophene-2-carboxylic acid], for which the pIC50 was > 5.30.

As to `CC1CC=C(c2cc(N(C(=O)C3CCC(C)CC3)C3CCCCC3)c(C(=O)O)s2)CC1` (stereo not drawn) [Compound 47, RS-3-[cyclohexyl-(4-trans-methyl-cyclohexanecarbonyl)-amino]-5-(4-methyl-cyclohex-1-enyl)-thiophene-2-carboxylic acid], the negative-log IC50 (pIC50) is > 5.30.

Consider `C[C@H]1CC[C@H](C(=O)N(c2cc(C3=CCCCC3)sc2C(=O)O)[C@H]2CC[C@H](n3cncn3)CC2)CC1` [Compound 48, 5-cyclohex-1-enyl-3-[(trans-4-methylcyclohexanecarbonyl)-(trans-4-[1,2,4]triazol-1-yl-cyclohexyl)-amino]-thiophene-2-carboxylic acid; hydrochloride], for which the negative-log IC50 (pIC50) is > 5.30.

Consider `C[C@H]1CC[C@H](C(=O)N(c2cc(C3=CCCCC3)sc2C(=O)O)[C@H]2CC[C@@H](C#N)CC2)CC1` [Compound 49, 3-[(cis-4-cyanocyclohexyl)-(trans-4-methylcyclohexanecarbonyl)-amino]-5-cyclohex-1-enyl-thiophene-2-carboxylic acid], for which the negative-log IC50 (pIC50) is > 5.30.

Take `C[C@H]1CC[C@H](C(=O)N(c2cc(C3=CCCCC3)sc2C(=O)O)[C@H]2CC[C@H](C#N)CC2)CC1` [Compound 50, 3-[(trans-4-cyanocyclohexyl)-(trans-4-methyl-cyclohexanecarbonyl)-amino]-5-cyclohex-1-enyl-thiophene-2-carboxylic acid]: the pIC50 was > 5.30.

As for `C[C@H]1CC[C@H](C(=O)N(c2cc(C3=CCCCC3)sc2C(=O)O)C2CC2)CC1` [Compound 51, 5-cyclohex-1-enyl-3-[cyclopropyl-(trans-4-methyl-cyclohexanecarbonyl)-amino]-thiophene-2-carboxylic acid], the negative-log IC50 (pIC50) was 4.60 to 5.30.

On to `C[C@H]1CC[C@H](C(=O)N(c2cc(C3=CCCCC3)sc2C(=O)O)[C@H]2CC[C@H](C)CC2)CC1` [Compound 52, 5-cyclohex-1-enyl-3-[(trans-4-methyl-cyclohexanecarbonyl)-(trans-4-methyl-cyclohexyl)-amino]-thiophene-2-carboxylic acid], for which the pIC50 is > 5.30.

On to `C[C@H]1CC[C@H](C(=O)N(c2cc(C3=CCCCC3)sc2C(=O)O)[C@H]2CC[C@@H](C)CC2)CC1` [Compound 53, 5-cyclohex-1-enyl-3-[(trans-4-methyl-cyclohexanecarbonyl)-(cis-4-methyl-cyclohexyl)-amino]-thiophene-2-carboxylic acid], for which the negative logarithm of the IC50 (pIC50) is > 5.30.

Regarding `C[C@H]1CC[C@H](C(=O)N(c2cc(C3=CCCCC3)sc2C(=O)O)[C@H]2CC[C@@H](F)CC2)CC1` [Compound 57, 5-cyclohex-1-enyl-3-[(cis-4-fluoro-cyclohexyl)-(trans-4-methyl-cyclohexanecarbonyl)-amino]-thiophene-2-carboxylic acid], the pIC50 was > 5.30.

With `CC1=CCCCC1c1cc(N(C(=O)C2CCC(C)CC2)C2CCC(=O)CC2)c(C(=O)O)s1` (stereo not drawn) [Compound 58, RS-3-[(4-trans-methyl-cyclohexanecarbonyl)-(4-oxo-cyclohexyl)-amino]-5-(2-methyl-cyclohex-2-enyl)-thiophene-2-carboxylic acid], the negative-log IC50 (pIC50) was 4.60 to 5.30.

As to `C[C@H]1CC[C@H](C(=O)N(c2cc(C3=CCCCC3)sc2C(=O)O)[C@H]2CC[C@H](c3nnn[nH]3)CC2)CC1` [Compound 62, 5-cyclohex-1-enyl-3-{(trans-4-methyl-cyclohexanecarbonyl)-[trans-4-(1h-tetrazol-5-yl)-cyclohexyl]-amino}-thiophene-2-carboxylic acid], the pIC50 is > 5.30.

On to `CC1CCC(C(=O)N(c2cc(C3=CCCCC3)sc2C(=O)O)C2CC[S+]([O-])CC2)CC1` (stereo not drawn) [Compound 63, 5-cyclohex-1-enyl-3-[(trans-4-methyl-cyclohexanecarbonyl)-(1-oxo-hexahydro-1-thiopyran-4-yl)-amino]-thiophene-2-carboxylic acid], for which the pIC50 is > 5.30.

On to `CC1(C)CCC(c2cc(N(C(=O)[C@H]3CC[C@H](C)CC3)[C@H]3CC[C@H](O)CC3)c(C(=O)O)s2)CC1` [Compound 64, 5-(4,4-dimethyl-cyclohexyl)-3-[(trans-4-hydroxy-cyclohexyl)-(trans-4-methyl-cyclohexanecarbonyl)-amino]-thiophene-2-carboxylic acid], for which the pIC50 was > 5.30.

As to `CC1CCC(C(=O)N(c2cc(C3=CCCCC3)sc2C(=O)O)C2CCc3ccccc3C2)CC1` (stereo not drawn) [Compound 66, RS-5-cyclohex-1-enyl-3-[(4-trans-methyl-cyclohexanecarbonyl)-(1,2,3,4-tetrahydro-naphthalen-2-yl)-amino]-thiophene-2-carboxylic acid], the negative-log IC50 (pIC50) is > 5.30.

Take `COc1ccc2c(c1)CC(N(C(=O)C1CCC(C)CC1)c1cc(C3=CCCCC3)sc1C(=O)O)CC2` (stereo not drawn) [Compound 67, RS-5-cyclohex-1-enyl-3-[(7-methoxy-1,2,3,4-tetrahydro-naphthalen-2-yl)-(4-trans-methyl-cyclohexanecarbonyl)-amino]-thiophene-2-carboxylic acid]: the pIC50 was > 5.30.

With `CNC(=O)C1CCC(N(C(=O)C2CCC(C)CC2)c2cc(C3=CCCCC3)sc2C(=O)O)CC1C(=O)O` (stereo not drawn) [Compound 68, 3-[(3-trans-carboxy-4-trans-methylcarbamoyl-cyclohexyl)-(4-trans-methyl-cyclohexanecarbonyl)-amino]-5-cyclohex-1-enyl-thiophene-2-carboxylic acid], the negative logarithm of the IC50 (pIC50) was > 5.30.

In the case of `C[C@H]1CC[C@H](C(=O)N(c2cc(C3=CCCCC3)sc2C(=O)O)[C@H]2CC[C@H](F)CC2)CC1` [Compound 70, 5-cyclohex-1-enyl-3-[(trans-4-fluoro-cyclohexyl)-(trans-4-methyl-cyclohexanecarbonyl)-amino]-thiophene-2-carboxylic acid], the pIC50 was > 5.30.

As to `CC1CCC(C(=O)N(c2cc(C3=CCCCC3)sc2C(=O)O)C2CCC3C(=O)N(C)C(=O)C3C2)CC1` (stereo not drawn) [Compound 72, RS-5-cyclohex-1-enyl-3-[(trans-methyl-cyclohexanecarbonyl)-(2-methyl-1,3-dioxo-octahydro-isoindol-5-yl)-amino]-thiophene-2-carboxylic acid], the pIC50 is > 5.30.

For the molecule `CC1CCC(C(=O)N(c2cc(C3=CCCCC3)sc2C(=O)O)C2CCC3(CC2)CN(C)C(=O)N3C)CC1` (stereo not drawn) [Compound 73, 5-cyclohex-1-enyl-3-[cis(1,3-dimethyl-2-oxo-1,3-diaza-spiro[4.5]dec-8-yl)-(trans-4-methyl-cyclohexanecarbonyl)-amino]-thiophene-2-carboxylic acid], the pIC50 is > 5.30.

For `C[C@H]1CC[C@H](C(=O)N(c2cc([C@H]3CC[C@H](C)CC3)sc2C(=O)O)[C@H]2CC[C@H](O)CC2)CC1` [Compound 77, 3-[(trans-4-hydroxy-cyclohexyl)-(trans-4-methyl-cyclohexanecarbonyl)-amino]-5-(trans-4-methyl-cyclohexyl)-thiophene-2-carboxylic acid], the pIC50 was > 5.30.

For the molecule `C[C@H]1CC[C@H](C(=O)N(c2cc([C@H]3CC[C@@H](C)CC3)sc2C(=O)O)[C@H]2CC[C@H](O)CC2)CC1` [Compound 78, 3-[(trans-4-hydroxy-cyclohexyl)-(trans-4-methyl-cyclohexanecarbonyl)-amino]-5-(cis-4-methyl-cyclohexyl)-thiophene-2-carboxylic acid], the pIC50 was > 5.30.

As to `CC1CCC(C(=O)N(c2cc(C3=CCCCC3)sc2C(=O)O)C2CCC3(CC2)CNC(=O)C3)CC1` (stereo not drawn) [Compound 80, 5-cyclohex-1-enyl-3-[(trans-4-methyl-cyclohexanecarbonyl)-cis-(3-oxo-2-aza-spiro[4.5]dec-8-yl)-amino]-thiophene-2-carboxylic acid], the pIC50 is > 5.30.

The same assay, now with this note: Huh-7, 5.2 or ET replicon cells, luciferase counts after 4 days incubation; read-out: IC50.
As for `CC1CCC(C(=O)N(c2cc(C3=CCCCC3)sc2C(=O)O)C2CCC(C(C)(C)C)CC2)CC1` (stereo not drawn) [Compound 45, 3-[(4-cis-tert-butyl-cyclohexyl)-(4-trans-methyl-cyclohexanecarbonyl)-amino]-5-cyclohex-1-enyl-thiophene-2-carboxylic acid], the negative-log IC50 (pIC50) is > 5.30.

Regarding `CC1CCC(C(=O)N(c2cc(C3=CCCC(C)C3)sc2C(=O)O)C2CCC(O)CC2)CC1` (stereo not drawn) [Compound 61, RS-3-[(4-trans-hydroxy-cyclohexyl)-(4-trans-methyl-cyclohexanecarbonyl)-amino]-5-(5-methyl-cyclohex-1-enyl)-thiophene-2-carboxylic acid], the pIC50 is > 5.30.

Take `CC1CCC(C(=O)N(c2cc(C3=CCCCC3)sc2C(=O)O)C2CCC3(CC2)CN(C)C(=O)N3C)CC1` (stereo not drawn) [Compound 74, 5-cyclohex-1-enyl-3-[trans-(1,3-dimethyl-2-oxo-1,3-diaza-spiro[4.5]dec-8-yl)-(trans-4-methyl-cyclohexanecarbonyl)-amino]-thiophene-2-carboxylic acid]: the pIC50 is > 5.30.

Regarding `CC1CCC(C(=O)N(c2cc(C3=CCCCC3)sc2C(=O)O)C2CCC3(CC2)CNC(=O)C3)CC1` (stereo not drawn) [Compound 81, 5-cyclohex-1-enyl-3-[(trans-4-methyl-cyclohexanecarbonyl)-trans-(3-oxo-2-aza-spiro[4.5]dec-8-yl)-amino]-thiophene-2-carboxylic acid], the pIC50 was > 5.30.
